Drawing on ChEMBL document CHEMBL1152560, “Substituted 2-arylbenzothiazoles as kinase inhibitors: hit-to-lead optimization” (Bioorg Med Chem, 2009), this text covers residual activity for three compounds.

In test [1] the target is Protein kinase C gamma type (Homo sapiens) (UniProt P05129). In words: Residual activity of PKCgamma at 1 uM by microplate scintillation counting.
Test [2] deals with BDNF/NT-3 growth factors receptor (Homo sapiens) (UniProt Q16620). In words: Residual activity of TRK-B at 1 uM by microplate scintillation counting.
The target of test [3] is CDK6/cyclin D1 (Homo sapiens) (UniProt P24385+Q00534). As to the kind of experiment: Residual activity of CDK6/Cyclin D1 at 10 uM by microplate scintillation counting. Format: protein-complex assay.
Test [4] deals with Mitogen-activated protein kinase 1 (Homo sapiens) (UniProt P28482). As to the kind of experiment: Residual activity of ERK2 at 1 uM by microplate scintillation counting.
The target in test [5] is Protein kinase C beta type (Homo sapiens) (UniProt P05771). As to the kind of experiment: Residual activity of PKCbeta2 at 10 uM by microplate scintillation counting.
For test [6], the target named is LIM domain kinase 1 (Homo sapiens) (UniProt P53667). As to the kind of experiment: Residual activity of LIMK1 at 0.1 uM by microplate scintillation counting.
For test [7], the target named is Serine/threonine-protein kinase Nek6 (Homo sapiens) (UniProt Q9HC98). As to the kind of experiment: Residual activity of NEK6 at 0.1 uM by microplate scintillation counting.
In test [8] the target is Tyrosine-protein kinase JAK2 (Homo sapiens) (UniProt O60674). As to the kind of experiment: Residual activity of JAK2 at 10 uM by microplate scintillation counting.
Test [9] addresses T1, Tyrosine-protein kinase ITK/TSK (Homo sapiens) (UniProt Q08881).
T1 sequence (whole entry): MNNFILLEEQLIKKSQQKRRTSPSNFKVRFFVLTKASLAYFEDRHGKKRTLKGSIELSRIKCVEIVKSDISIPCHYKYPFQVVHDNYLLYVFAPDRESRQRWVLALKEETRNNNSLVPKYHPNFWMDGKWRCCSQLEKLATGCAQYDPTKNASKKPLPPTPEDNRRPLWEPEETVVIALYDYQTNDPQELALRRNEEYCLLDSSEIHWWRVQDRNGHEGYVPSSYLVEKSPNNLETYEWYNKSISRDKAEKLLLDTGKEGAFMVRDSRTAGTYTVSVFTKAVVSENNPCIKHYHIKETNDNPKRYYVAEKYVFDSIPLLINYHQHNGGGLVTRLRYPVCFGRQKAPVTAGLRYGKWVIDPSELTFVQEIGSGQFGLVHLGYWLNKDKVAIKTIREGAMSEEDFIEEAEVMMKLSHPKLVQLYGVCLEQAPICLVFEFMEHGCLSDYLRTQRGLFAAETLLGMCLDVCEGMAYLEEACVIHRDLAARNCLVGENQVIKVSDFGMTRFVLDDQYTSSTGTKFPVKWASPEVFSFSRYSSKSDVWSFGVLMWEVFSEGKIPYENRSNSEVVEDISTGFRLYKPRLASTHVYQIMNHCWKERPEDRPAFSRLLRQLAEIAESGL
In words: Residual activity of ITK at 1 uM by microplate scintillation counting.

In test [10] the target is Calcium/calmodulin-dependent protein kinase type II subunit beta (Homo sapiens) (UniProt Q13554). As to the kind of experiment: Residual activity of CAMK2B at 10 uM by microplate scintillation counting.
Test [11] deals with Serine/threonine-protein kinase PAK 6 (Homo sapiens) (UniProt Q9NQU5). As to the kind of experiment: Residual activity of PAK6 at 10 uM by microplate scintillation counting.
The target of test [12] is Serine/threonine-protein kinase B-raf (Homo sapiens) (UniProt P15056). As to the kind of experiment: Residual activity of Wild type B-RAF at 0.1 uM by microplate scintillation counting.
Test [13] has as its target Mast/stem cell growth factor receptor Kit (Homo sapiens) (UniProt P10721). In words: Residual activity of wild type KIT at 1 uM by microplate scintillation counting.
Test [14] addresses MAP/microtubule affinity-regulating kinase 3 (Homo sapiens) (UniProt P27448). As to the kind of experiment: Residual activity of MARK3 at 1 uM by microplate scintillation counting.
Test [15] concerns the target SRSF protein kinase 2 (Homo sapiens) (UniProt P78362). As to the kind of experiment: Residual activity of SRPK2 at 1 uM by microplate scintillation counting.
The target of test [16] is T2, Ephrin type-A receptor 1 (Homo sapiens) (UniProt P21709).
T2 sequence (whole entry): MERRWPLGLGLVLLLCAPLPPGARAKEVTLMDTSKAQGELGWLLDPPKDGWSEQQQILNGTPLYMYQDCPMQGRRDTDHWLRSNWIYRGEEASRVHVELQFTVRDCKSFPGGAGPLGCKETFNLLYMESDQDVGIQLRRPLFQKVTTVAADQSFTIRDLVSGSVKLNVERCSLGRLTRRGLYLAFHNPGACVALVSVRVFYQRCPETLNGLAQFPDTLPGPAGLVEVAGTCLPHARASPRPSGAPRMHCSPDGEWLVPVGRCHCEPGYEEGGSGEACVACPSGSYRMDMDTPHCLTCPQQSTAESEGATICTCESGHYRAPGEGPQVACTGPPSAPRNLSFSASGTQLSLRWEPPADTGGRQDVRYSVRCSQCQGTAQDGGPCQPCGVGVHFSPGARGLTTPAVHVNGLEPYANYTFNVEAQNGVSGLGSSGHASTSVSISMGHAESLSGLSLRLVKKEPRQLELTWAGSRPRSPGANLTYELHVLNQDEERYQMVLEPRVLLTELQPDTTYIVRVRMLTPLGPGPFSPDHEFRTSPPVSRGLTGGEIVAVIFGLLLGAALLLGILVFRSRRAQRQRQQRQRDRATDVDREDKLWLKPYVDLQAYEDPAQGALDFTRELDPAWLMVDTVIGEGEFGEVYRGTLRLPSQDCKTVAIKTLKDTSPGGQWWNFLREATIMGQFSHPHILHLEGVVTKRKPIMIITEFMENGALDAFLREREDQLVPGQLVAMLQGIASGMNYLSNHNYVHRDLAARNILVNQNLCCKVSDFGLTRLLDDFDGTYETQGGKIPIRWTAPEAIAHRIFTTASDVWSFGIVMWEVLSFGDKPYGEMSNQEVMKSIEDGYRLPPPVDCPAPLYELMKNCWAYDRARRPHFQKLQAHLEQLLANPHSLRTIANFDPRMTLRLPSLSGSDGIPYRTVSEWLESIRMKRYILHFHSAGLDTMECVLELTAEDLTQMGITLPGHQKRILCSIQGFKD
In words: Residual activity of EPHA1 at 10 uM by microplate scintillation counting.

Test [17] concerns the target Cyclin-dependent kinase 7/ cyclin H (Homo sapiens) (UniProt P51946+P50613). As to the kind of experiment: Residual activity of CDK7/CyclinH/MAT1 at 1 uM by microplate scintillation counting. In kind it is protein-complex assay.

MAP/microtubule affinity-regulating kinase 3 (Homo sapiens), sequence (P27448 whole entry, looked up): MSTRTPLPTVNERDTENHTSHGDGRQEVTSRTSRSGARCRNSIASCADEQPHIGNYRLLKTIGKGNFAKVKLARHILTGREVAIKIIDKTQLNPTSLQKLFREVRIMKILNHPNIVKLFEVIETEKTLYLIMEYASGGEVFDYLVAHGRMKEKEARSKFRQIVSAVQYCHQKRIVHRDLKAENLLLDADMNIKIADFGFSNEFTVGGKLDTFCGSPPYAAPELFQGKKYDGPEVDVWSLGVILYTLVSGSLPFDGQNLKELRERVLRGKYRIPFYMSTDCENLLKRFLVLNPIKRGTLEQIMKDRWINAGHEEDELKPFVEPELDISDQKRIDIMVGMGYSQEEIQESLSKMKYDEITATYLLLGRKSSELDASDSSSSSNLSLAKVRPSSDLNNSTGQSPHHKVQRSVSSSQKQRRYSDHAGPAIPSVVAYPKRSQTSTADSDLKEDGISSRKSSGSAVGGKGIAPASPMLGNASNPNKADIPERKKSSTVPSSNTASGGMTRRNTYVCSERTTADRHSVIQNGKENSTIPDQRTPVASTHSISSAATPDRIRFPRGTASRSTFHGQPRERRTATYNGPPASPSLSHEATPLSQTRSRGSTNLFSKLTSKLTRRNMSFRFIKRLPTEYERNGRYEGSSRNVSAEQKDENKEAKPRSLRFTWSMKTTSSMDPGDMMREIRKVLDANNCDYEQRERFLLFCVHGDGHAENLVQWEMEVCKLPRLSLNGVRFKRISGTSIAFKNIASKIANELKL
Protein kinase C beta type (Homo sapiens), sequence (P05771 2-671 limits assumed): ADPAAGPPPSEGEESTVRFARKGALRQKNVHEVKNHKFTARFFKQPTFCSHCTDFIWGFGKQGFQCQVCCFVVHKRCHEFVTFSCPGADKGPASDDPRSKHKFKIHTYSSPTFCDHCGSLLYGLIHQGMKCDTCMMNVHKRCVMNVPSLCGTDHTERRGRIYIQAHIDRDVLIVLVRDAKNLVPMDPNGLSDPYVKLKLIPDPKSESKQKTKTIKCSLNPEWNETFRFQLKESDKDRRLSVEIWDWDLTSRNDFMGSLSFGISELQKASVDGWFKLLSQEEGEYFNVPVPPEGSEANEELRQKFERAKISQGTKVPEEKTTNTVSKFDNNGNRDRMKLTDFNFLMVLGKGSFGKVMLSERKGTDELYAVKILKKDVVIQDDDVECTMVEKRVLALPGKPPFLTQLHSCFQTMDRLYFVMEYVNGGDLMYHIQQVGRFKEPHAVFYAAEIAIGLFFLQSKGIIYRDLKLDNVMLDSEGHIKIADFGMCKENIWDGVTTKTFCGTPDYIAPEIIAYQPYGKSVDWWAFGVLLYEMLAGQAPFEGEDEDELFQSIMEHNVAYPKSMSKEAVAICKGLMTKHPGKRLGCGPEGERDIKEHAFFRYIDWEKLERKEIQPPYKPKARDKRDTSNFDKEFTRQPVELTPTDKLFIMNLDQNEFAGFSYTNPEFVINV
LIM domain kinase 1 (Homo sapiens), sequence (P53667 whole entry, looked up, the tested form may be a part): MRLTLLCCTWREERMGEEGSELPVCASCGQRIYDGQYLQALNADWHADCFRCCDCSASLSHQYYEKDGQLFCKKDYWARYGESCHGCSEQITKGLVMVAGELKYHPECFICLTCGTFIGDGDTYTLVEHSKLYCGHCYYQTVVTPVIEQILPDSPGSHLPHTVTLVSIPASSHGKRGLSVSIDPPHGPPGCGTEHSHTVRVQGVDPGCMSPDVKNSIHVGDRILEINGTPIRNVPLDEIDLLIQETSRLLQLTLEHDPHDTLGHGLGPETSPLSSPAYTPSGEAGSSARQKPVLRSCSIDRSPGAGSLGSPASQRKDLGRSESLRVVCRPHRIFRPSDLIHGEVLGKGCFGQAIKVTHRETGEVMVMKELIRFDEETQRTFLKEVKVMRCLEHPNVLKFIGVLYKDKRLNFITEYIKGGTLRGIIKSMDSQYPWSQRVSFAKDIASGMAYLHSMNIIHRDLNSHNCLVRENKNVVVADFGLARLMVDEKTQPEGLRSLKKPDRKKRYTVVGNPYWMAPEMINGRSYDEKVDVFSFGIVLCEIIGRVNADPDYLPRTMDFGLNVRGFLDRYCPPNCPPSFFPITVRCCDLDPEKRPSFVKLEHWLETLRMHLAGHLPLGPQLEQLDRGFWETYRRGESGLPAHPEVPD
Mitogen-activated protein kinase 1 (Homo sapiens), sequence (P28482 whole entry): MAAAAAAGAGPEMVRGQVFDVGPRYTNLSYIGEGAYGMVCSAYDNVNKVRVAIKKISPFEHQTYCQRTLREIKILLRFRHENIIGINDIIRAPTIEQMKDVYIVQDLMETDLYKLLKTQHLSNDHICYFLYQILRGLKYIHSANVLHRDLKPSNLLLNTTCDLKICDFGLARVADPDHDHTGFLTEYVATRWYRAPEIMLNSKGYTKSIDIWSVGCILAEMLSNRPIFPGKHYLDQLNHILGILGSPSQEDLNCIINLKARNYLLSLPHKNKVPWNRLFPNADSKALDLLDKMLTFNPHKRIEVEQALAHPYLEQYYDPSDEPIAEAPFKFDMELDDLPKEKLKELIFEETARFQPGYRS
Serine/threonine-protein kinase B-raf (Homo sapiens), sequence (P15056 whole entry): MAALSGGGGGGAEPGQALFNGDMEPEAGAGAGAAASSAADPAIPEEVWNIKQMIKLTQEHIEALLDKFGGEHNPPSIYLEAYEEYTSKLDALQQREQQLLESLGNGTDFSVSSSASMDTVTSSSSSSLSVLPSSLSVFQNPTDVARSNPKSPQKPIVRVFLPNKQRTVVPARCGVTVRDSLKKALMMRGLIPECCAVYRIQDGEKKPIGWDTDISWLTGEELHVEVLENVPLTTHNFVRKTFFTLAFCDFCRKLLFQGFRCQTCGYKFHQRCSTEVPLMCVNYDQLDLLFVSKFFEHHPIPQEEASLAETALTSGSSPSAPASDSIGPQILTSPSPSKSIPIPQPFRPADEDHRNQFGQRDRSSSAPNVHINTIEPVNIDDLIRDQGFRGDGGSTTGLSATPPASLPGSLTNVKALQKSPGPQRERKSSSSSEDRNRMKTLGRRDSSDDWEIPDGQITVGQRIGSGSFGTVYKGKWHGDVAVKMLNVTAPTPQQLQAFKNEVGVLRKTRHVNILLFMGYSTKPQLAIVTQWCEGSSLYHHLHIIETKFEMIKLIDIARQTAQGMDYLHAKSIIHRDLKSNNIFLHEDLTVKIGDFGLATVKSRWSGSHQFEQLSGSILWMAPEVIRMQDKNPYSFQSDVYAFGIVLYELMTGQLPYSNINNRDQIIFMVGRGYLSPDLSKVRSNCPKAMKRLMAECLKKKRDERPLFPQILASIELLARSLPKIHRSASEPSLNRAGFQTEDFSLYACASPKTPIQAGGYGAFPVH
Calcium/calmodulin-dependent protein kinase type II subunit beta (Homo sapiens), sequence (Q13554 whole entry): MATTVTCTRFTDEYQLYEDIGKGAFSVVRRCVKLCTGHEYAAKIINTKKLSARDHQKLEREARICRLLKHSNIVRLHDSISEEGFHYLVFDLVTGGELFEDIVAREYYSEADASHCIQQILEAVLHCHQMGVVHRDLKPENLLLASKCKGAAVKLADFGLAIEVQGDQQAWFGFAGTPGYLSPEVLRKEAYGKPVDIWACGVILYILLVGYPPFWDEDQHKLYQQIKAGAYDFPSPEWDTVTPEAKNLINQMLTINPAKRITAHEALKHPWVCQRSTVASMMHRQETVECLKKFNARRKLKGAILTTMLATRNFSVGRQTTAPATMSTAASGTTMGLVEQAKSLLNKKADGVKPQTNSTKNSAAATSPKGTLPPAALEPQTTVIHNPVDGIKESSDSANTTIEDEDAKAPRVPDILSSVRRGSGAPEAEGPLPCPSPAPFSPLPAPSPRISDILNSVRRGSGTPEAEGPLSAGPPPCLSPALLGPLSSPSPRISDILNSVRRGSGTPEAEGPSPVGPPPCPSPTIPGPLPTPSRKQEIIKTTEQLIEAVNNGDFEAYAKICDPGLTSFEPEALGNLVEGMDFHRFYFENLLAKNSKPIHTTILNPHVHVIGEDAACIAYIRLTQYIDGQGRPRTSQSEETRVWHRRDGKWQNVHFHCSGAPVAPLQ
SRSF protein kinase 2 (Homo sapiens), sequence (P78362 whole entry, looked up): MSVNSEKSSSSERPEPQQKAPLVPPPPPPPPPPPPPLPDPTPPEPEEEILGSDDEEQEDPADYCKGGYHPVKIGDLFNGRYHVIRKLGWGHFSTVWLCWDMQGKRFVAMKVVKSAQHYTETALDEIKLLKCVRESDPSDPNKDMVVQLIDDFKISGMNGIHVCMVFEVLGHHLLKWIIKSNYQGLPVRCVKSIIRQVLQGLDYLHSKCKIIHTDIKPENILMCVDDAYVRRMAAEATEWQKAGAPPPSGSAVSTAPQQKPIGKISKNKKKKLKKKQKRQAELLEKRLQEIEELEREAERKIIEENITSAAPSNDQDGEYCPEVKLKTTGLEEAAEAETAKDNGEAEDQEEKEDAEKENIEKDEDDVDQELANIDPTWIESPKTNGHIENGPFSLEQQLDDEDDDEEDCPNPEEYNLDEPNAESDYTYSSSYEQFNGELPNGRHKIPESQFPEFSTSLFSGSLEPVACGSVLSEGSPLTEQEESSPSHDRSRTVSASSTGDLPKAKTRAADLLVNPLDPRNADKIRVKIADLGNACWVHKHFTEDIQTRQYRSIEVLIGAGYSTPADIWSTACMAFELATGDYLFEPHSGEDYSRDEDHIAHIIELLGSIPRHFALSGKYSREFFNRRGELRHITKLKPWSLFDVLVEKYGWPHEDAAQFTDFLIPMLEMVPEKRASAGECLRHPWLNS
Serine/threonine-protein kinase Nek6 (Homo sapiens), sequence (Q9HC98 whole entry): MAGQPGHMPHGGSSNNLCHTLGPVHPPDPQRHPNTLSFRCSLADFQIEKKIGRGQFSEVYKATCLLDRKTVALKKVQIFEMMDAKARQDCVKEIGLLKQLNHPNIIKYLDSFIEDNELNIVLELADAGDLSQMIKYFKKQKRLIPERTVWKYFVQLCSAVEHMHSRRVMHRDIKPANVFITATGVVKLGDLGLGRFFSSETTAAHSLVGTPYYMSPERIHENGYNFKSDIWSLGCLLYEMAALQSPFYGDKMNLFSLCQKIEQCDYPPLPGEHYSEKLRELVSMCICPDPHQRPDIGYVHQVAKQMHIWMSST

On to `COc1cc2c(Oc3ccc(-c4nc5ccccc5s4)cc3)ncnc2cc1OCCCN1CCN(C)CC1`, for which the residual activity in [1] is 117%; in [2], 93%; in [3], 193%; in test [4], 91%; in [5], 77%; in [6], 68%. For the same compound, the residual activity was 93% in test [7]; 67% in test [8]; 91% in test [9]; 67% in test [10]; 65% in [11]; 90% in test [12]. Further, the residual activity amounted to 124% in test [13]; 93% in [14]; 115% in test [15]; 169% in [16]; 94% in [17].
With `COc1cc2c(Oc3ccc(-c4nc5ccccc5s4)cc3)ncnc2cc1OCCCN1CCCC1`, the residual activity in [1] stood at 102%; in test [2] it was 104%; in [3], 140%; in [4] it was 82%; in test [5], 69%; in test [6], 76%. In addition, the residual activity in test [7] amounted to 93%; in [8], 67%; in [9], 95%; in [10], 56%; in test [11], 95%; in [12] it was 98%. Besides, the residual activity in test [13] was 129%; in [14], 91%; in test [15] it was 97%; in test [16], 199%; in test [17], 77%.
For the compound `COc1cc2c(Oc3ccc(-c4nc5ccccc5s4)cc3F)ncnc2cc1OCCCN1CCN(C)CC1`, the residual activity in [1] worked out at 117%; in test [2], 95%; in [3] it was 167%; in test [4], 98%; in test [5] it was 53%; in [6], 77%. Moreover, the residual activity in test [7] is 98%; in test [8] it was 60%; in test [9], 97%; in test [10], 58%; in [11], 57%; in test [12] it was 95%. Further, the residual activity was 128% in test [13]; 91% in test [14]; 107% in test [15]; 79% in test [16]; 87% in test [17].
